# Measurements published in PubChem BioAssay (NCI).
#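 1) Cells in 96-well plates. 2) Compound, 48 h, 5 concentrations. 3) Linear interpolation between surrounding doses. 4) Unreached endpoint = highest concentration. TGI marks complete inhibition of growth.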
# Tests used:
# Test in all cases: DTP human tumour cell line panel, 48 h
# A498 renal = tested on: A498 renal
# A549 NSCLC = tested on: A549 NSCLC
# ACHN renal = tested on: ACHN renal
# BT-549 breast = tested on: BT-549 breast
# CAKI-1 renal = tested on: CAKI-1 renal
# COLO 205 colon = tested on: COLO 205 colon
# DU-145 prostate = tested on: DU-145 prostate
# EKVX NSCLC = tested on: EKVX NSCLC
# HCC-2998 colon = tested on: HCC-2998 colon
# HCT-15 colon = tested on: HCT-15 colon
# HOP-62 NSCLC = tested on: HOP-62 NSCLC
# HOP-92 NSCLC = tested on: HOP-92 NSCLC
# HS 578T breast = tested on: HS 578T breast
# HT29 colon = tested on: HT29 colon
# IGROV1 ovarian = tested on: IGROV1 ovarian
# K-562 leukemia = tested on: K-562 leukemia
# KM12 colon = tested on: KM12 colon
# LOX IMVI melanoma = tested on: LOX IMVI melanoma
# MALME-3M melanoma = tested on: MALME-3M melanoma
# MCF7 breast = tested on: MCF7 breast
# MDA-MB-231 breast = tested on: MDA-MB-231 breast
# MDA-MB-435 = tested on: MDA-MB-435
# MDA-N = tested on: MDA-N
# MOLT-4 leukemia = tested on: MOLT-4 leukemia
# NCI-H226 lung = tested on: NCI-H226 lung
# NCI-H23 lung = tested on: NCI-H23 lung
# NCI-H460 lung = tested on: NCI-H460 lung
# NCI-H522 lung = tested on: NCI-H522 lung
# NCI/ADR-RES ovarian = tested on: NCI/ADR-RES ovarian
# OVCAR-3 ovarian = tested on: OVCAR-3 ovarian
# OVCAR-5 ovarian = tested on: OVCAR-5 ovarian
# OVCAR-8 ovarian = tested on: OVCAR-8 ovarian
# PC-3 prostate = tested on: PC-3 prostate
# RXF 393 renal = tested on: RXF 393 renal
# SF-268 CNS = tested on: SF-268 CNS
# SF-295 CNS = tested on: SF-295 CNS
# SF-539 CNS = tested on: SF-539 CNS
# SK-MEL-2 melanoma = tested on: SK-MEL-2 melanoma
# SK-MEL-28 melanoma = tested on: SK-MEL-28 melanoma
# SK-MEL-5 melanoma = tested on: SK-MEL-5 melanoma
# SK-OV-3 ovarian = tested on: SK-OV-3 ovarian
# SN12C renal = tested on: SN12C renal
# SNB-19 CNS = tested on: SNB-19 CNS
# SNB-75 CNS = tested on: SNB-75 CNS
# SW-620 colon = tested on: SW-620 colon
# T-47D breast = tested on: T-47D breast
# TK-10 renal = tested on: TK-10 renal
# U251 CNS = tested on: U251 CNS
# UACC-257 melanoma = tested on: UACC-257 melanoma
# UACC-62 melanoma = tested on: UACC-62 melanoma
# UO-31 renal = tested on: UO-31 renal
# 786-0 renal = tested on: 786-0 renal
# CCRF-CEM leukemia = tested on: CCRF-CEM leukemia
# HCT-116 colon = tested on: HCT-116 colon
# HL-60(TB) leukemia = tested on: HL-60(TB) leukemia
# M14 melanoma = tested on: M14 melanoma
# OVCAR-4 ovarian = tested on: OVCAR-4 ovarian
structure (smiles),measurement,setting,value
N#Cc1c(C#N)c(SSc2c(C#N)c(C#N)c(N)n2-c2ccccc2)n(-c2ccccc2)c1N,TGI,A498 renal,44.1 µM
same,TGI,A549 NSCLC,> 57.2 µM
same,TGI,ACHN renal,21.4 µM
same,TGI,BT-549 breast,30.7 µM
same,TGI,CAKI-1 renal,2.99 µM
same,TGI,COLO 205 colon,3.82 µM
same,TGI,DU-145 prostate,39 µM
same,TGI,EKVX NSCLC,59.5 µM
same,TGI,HCC-2998 colon,51 µM
same,TGI,HCT-15 colon,> 24.4 µM
same,TGI,HOP-62 NSCLC,> 69.1 µM
same,TGI,HOP-92 NSCLC,3.71 µM
same,TGI,HS 578T breast,55.2 µM
same,TGI,HT29 colon,> 59.1 µM
same,TGI,IGROV1 ovarian,> 60.5 µM
same,TGI,K-562 leukemia,> 100 µM
same,TGI,KM12 colon,> 63.3 µM
same,TGI,LOX IMVI melanoma,> 100 µM
same,TGI,MALME-3M melanoma,3.26 µM
same,TGI,MCF7 breast,5.84 µM
same,TGI,MDA-MB-231 breast,> 69.6 µM
same,TGI,MDA-MB-435,29.2 µM
same,TGI,MDA-N,> 56.7 µM
same,TGI,MOLT-4 leukemia,> 100 µM
same,TGI,NCI-H226 lung,54.3 µM
same,TGI,NCI-H23 lung,> 61 µM
same,TGI,NCI-H460 lung,> 89.3 µM
same,TGI,NCI-H522 lung,> 100 µM
same,TGI,NCI/ADR-RES ovarian,> 71.4 µM
same,TGI,OVCAR-3 ovarian,45.2 µM
same,TGI,OVCAR-5 ovarian,> 62.5 µM
same,TGI,OVCAR-8 ovarian,> 100 µM
same,TGI,PC-3 prostate,46.1 µM
same,TGI,RXF 393 renal,44.7 µM
same,TGI,SF-268 CNS,> 72 µM
same,TGI,SF-295 CNS,> 58.6 µM
same,TGI,SF-539 CNS,> 100 µM
same,TGI,SK-MEL-2 melanoma,47.7 µM
same,TGI,SK-MEL-28 melanoma,40.9 µM
same,TGI,SK-MEL-5 melanoma,31.9 µM
same,TGI,SK-OV-3 ovarian,37.5 µM
same,TGI,SN12C renal,38.3 µM
same,TGI,SNB-19 CNS,> 63.1 µM
same,TGI,SNB-75 CNS,> 70 µM
same,TGI,SW-620 colon,3.43 µM
same,TGI,T-47D breast,5.29 µM
same,TGI,TK-10 renal,3.29 µM
same,TGI,U251 CNS,42.4 µM
same,TGI,UACC-257 melanoma,> 69.8 µM
same,TGI,UACC-62 melanoma,46.4 µM
same,TGI,UO-31 renal,3.08 µM
O=C(C1OC1c1ccc([N+](=O)[O-])cc1)C12CC3CC(CC(C3)C1)C2 (stereo not drawn),TGI,786-0 renal,22.1 µM
same,TGI,A498 renal,35.7 µM
same,TGI,A549 NSCLC,52.7 µM
same,TGI,ACHN renal,34 µM
same,TGI,BT-549 breast,40.2 µM
same,TGI,CAKI-1 renal,36 µM
same,TGI,CCRF-CEM leukemia,7.66 µM
same,TGI,COLO 205 colon,35.4 µM
same,TGI,DU-145 prostate,46.2 µM
same,TGI,EKVX NSCLC,37.4 µM
same,TGI,HCC-2998 colon,44.4 µM
same,TGI,HCT-116 colon,22 µM
same,TGI,HCT-15 colon,31.5 µM
same,TGI,HL-60(TB) leukemia,16.1 µM
same,TGI,HOP-62 NSCLC,56.3 µM
same,TGI,HOP-92 NSCLC,40.3 µM
same,TGI,HS 578T breast,50.3 µM
same,TGI,HT29 colon,47.7 µM
same,TGI,IGROV1 ovarian,34.6 µM
same,TGI,K-562 leukemia,33.5 µM
same,TGI,KM12 colon,30.1 µM
same,TGI,LOX IMVI melanoma,4.19 µM
same,TGI,M14 melanoma,30.1 µM
same,TGI,MALME-3M melanoma,32.4 µM
same,TGI,MCF7 breast,33.1 µM
same,TGI,MDA-MB-231 breast,34.8 µM
same,TGI,MDA-MB-435,28.4 µM
same,TGI,MDA-N,24.3 µM
same,TGI,MOLT-4 leukemia,49.3 µM
same,TGI,NCI-H226 lung,39.4 µM
same,TGI,NCI-H23 lung,27.2 µM
same,TGI,NCI-H460 lung,28.5 µM
same,TGI,NCI-H522 lung,54 µM
same,TGI,NCI/ADR-RES ovarian,39.2 µM
same,TGI,OVCAR-3 ovarian,27 µM
same,TGI,OVCAR-4 ovarian,38.9 µM
same,TGI,OVCAR-5 ovarian,39.9 µM
same,TGI,OVCAR-8 ovarian,38.2 µM
same,TGI,PC-3 prostate,28.1 µM
same,TGI,RXF 393 renal,46.4 µM
same,TGI,SF-268 CNS,40.8 µM
same,TGI,SF-295 CNS,30.8 µM
same,TGI,SF-539 CNS,28.9 µM
same,TGI,SK-MEL-2 melanoma,39.1 µM
same,TGI,SK-MEL-28 melanoma,33.4 µM
same,TGI,SK-MEL-5 melanoma,29.1 µM
same,TGI,SK-OV-3 ovarian,49.6 µM
same,TGI,SN12C renal,29.7 µM
same,TGI,SNB-19 CNS,32 µM
same,TGI,SNB-75 CNS,39.4 µM
same,TGI,SW-620 colon,56 µM
same,TGI,T-47D breast,37.3 µM
same,TGI,TK-10 renal,33.3 µM
same,TGI,U251 CNS,24.6 µM
same,TGI,UACC-257 melanoma,30.9 µM
same,TGI,UACC-62 melanoma,28.9 µM
same,TGI,UO-31 renal,32.4 µM
